Measurements taken from patent US9630977B2, “Cephalosporin derivatives and pharmaceutical compositions thereof” (Legochem Biosciences, Inc., priority 2011, dated 2017).
Converted amounts (≈) assume the structure as drawn. Read-outs that look alike come from different tables or passages of the source.

Key:
Assay in all cases: In vitro antibacterial activity test (broth microdilution)
Assay type in all cases: cell-based
K. pneumoniae 2011E = conditions: Klebsiella pneumoniae, 2011E
Method: (§1) To evaluate antibacterial activity of each of the compounds of Examples 1 to 68, in vitro antibacterial activity test was performed.
(§2) The in vitro antibacterial activity was evaluated by measuring MIC90 (ug/mL) of each of the compounds of Examples 1 to 68, which is defined as the lowest concentration of an antibiotic that will inhibit the visible growth of 90% of microorganisms after incubation as compared with a control group to which the antibiotic is not treated. MIC90 values were measured by the broth microdilution method developed by the Clinical and Laboratory Standards Institute (CLSI) (see CLSI M7-A5, Methods for Dilution Antimicrobial Susceptibility Test for Bacteria that Grow Aerobically-Fifth Edition (2000): CLSI, Villanova, Pa.).
(§3) In vitro antibacterial activity was measured with respect to the following 19 clinical isolates: M. catarrhalis; P. aeruginosa (5 strains); K. pneumoniae (6 strains); A. baumannii (3 strains); E. coli (2 strains); A. calcoaceticus; and E. cloacae.
(§4) Test compounds each (the cephalosporin derivative compounds prepared in Examples 1 to 68) were dissolved in DMSO at the concentration of 10,240 ug/mL, were diluted by two fold with DMSO, and then were diluted by twenty fold with sterilized distilled water. The final concentration in the antibacterial activity test was in the range of […] to 128 ug/mL, and the final concentration of DMSO used as an adjuvant was 2.5% (V/V).

P. aeruginosa 43 = conditions: Pseudomonas aeruginosa
Method: as §1, §2, §3, §4

A. baumannii 46 = tested on: A. baumannii 46
Method: as §1, §2, §3, §4

P. aeruginosa 6065Y = conditions: Pseudomonas aeruginosa
Method: as §1, §2, §3, §4

E. cloacae β19 = conditions: Enterobacter cloacae
Method: as §1, §2, §3, §4

K. pneumoniae β13 = conditions: Klebsiella pneumoniae
Method: as §1, §2, §3, §4

K. pneumoniae β11 = conditions: Klebsiella pneumoniae
Method: as §1, §2, §3, §4

K. pneumoniae β10 = conditions: Klebsiella pneumoniae
Method: as §1, §2, §3, §4

P. aeruginosa 1912E = conditions: Pseudomonas aeruginosa, 1912E
Method: as §1, §2, §3, §4

E. coli AG100 = conditions: Escherichia coli
Method: as §1, §2, §3, §4

K. pneumoniae β9 = conditions: Klebsiella pneumoniae
Method: as §1, §2, §3, §4

A. baumannii 52 = conditions: Acinetobacter baumannii
Method: as §1, §2, §3, §4

M. catarrhalis 2524 = conditions: Moraxella catarrhalis
Method: as §1, §2, §3, §4

[1] = tested on: A. calcoaceticus ATCC15473; conditions: Acinetobacter calcoaceticus
Method: as §1, §2, §3, §4

P. aeruginosa 40 = tested on: P. aeruginosa 40
Method: as §1, §2, §3, §4

E. coli β4 = conditions: Escherichia coli
Method: as §1, §2, §3, §4

K. pneumoniae β14 = conditions: Klebsiella pneumoniae
Method: as §1, §2, §3, §4

A. baumannii 49 = tested on: A. baumannii 49
Method: as §1, §2, §3, §4

P. aeruginosa 37 = conditions: Pseudomonas aeruginosa, 37, P. aeruginosa 37
Method: as §1, §2, §3, §4

[2] = K. pneumoniae 2011E, read-out: MIC90
[3] = P. aeruginosa 43, read-out: MIC90
[4] = Acinetobacter baumannii, A. baumannii 46, read-out: MIC90
[5] = K. pneumoniae β13, read-out: MIC90
[6] = K. pneumoniae β11, read-out: MIC90
[7] = K. pneumoniae β10, read-out: MIC90
[8] = AG100, E. coli AG100, read-out: MIC90
[9] = K. pneumoniae β9, read-out: MIC90
[10] = A. baumannii 52, read-out: MIC90
[11] = M. catarrhalis 2524, read-out: MIC90
[12] = A. calcoaceticus ATCC15473, read-out: MIC90
[13] = Pseudomonas aeruginosa, 40, P. aeruginosa 40, read-out: MIC90
[14] = Acinetobacter baumannii, A. baumannii 49, read-out: MIC90

Row | SMILES | MIC90 (K. pneumoniae 2011E; [2]) | MIC90 (P. aeruginosa 43; [3]) | MIC90 (A. baumannii 46; [4]) | MIC90 (P. aeruginosa 6065Y; read-out: MIC90) | MIC90 (E. cloacae β19; read-out: MIC90) | MIC90 (K. pneumoniae β13; [5]) | MIC90 (K. pneumoniae β11; [6]) | MIC90 (K. pneumoniae β10; [7]) | MIC90 (P. aeruginosa 1912E; read-out: MIC90) | MIC90 (E. coli AG100; [8]) | MIC90 (K. pneumoniae β9; [9]) | MIC90 (A. baumannii 52; [10]) | MIC90 (M. catarrhalis 2524; [11]) | MIC90 [1, 12] | MIC90 (P. aeruginosa 40; [13]) | MIC90 (E. coli β4; read-out: MIC90) | MIC90 (K. pneumoniae β14; read-out: MIC90) | MIC90 (A. baumannii 49; [14]) | MIC90 (P. aeruginosa 37; read-out: MIC90) | other results
1 | CC(C)(O/N=C(\C(=O)N[C@@H]1C(=O)N2C(C(=O)[O-])=C(C[n+]3cnc(N)c(NCCNC(=O)c4cc(=O)c(O)cn4O)c3)CSC12)c1csc(N)n1)C(=O)O (some centres unmarked) [Compound 1] | 2 µg/mL (≈ 2.58 µM) | 0.25 µg/mL (≈ 0.323 µM) | 4 µg/mL (≈ 5.17 µM) | 1 µg/mL (≈ 1.29 µM) | 2 µg/mL (≈ 2.58 µM) | 0.5 µg/mL (≈ 0.646 µM) | 128 µg/mL (≈ 165 µM) | 0.125 µg/mL (≈ 0.162 µM) | 0.25 µg/mL (≈ 0.323 µM) | < 0.0625 µg/mL | 4 µg/mL (≈ 5.17 µM) | 32 µg/mL (≈ 41.4 µM) | 1 µg/mL (≈ 1.29 µM) | 0.5 µg/mL (≈ 0.646 µM) | 0.25 µg/mL (≈ 0.323 µM) | 2 µg/mL (≈ 2.58 µM) | 128 µg/mL (≈ 165 µM) | 16 µg/mL (≈ 20.7 µM) | 0.5 µg/mL (≈ 0.646 µM) | –
2 | CC(C)(O/N=C(\C(=O)N[C@@H]1C(=O)N2C(C(=O)[O-])=C(C[n+]3cnc(NCCN)c(NCCNC(=O)c4cc(=O)c(O)cn4O)c3)CSC12)c1csc(N)n1)C(=O)O (some centres unmarked) [Compound 5] | – | – | – | – | – | – | – | – | – | – | – | – | – | – | – | – | – | – | – | MIC90 (K. pneumoniae 2011E): 2 µg/mL (≈ 2.45 µM); MIC90 (P. aeruginosa 43; 43): 0.25 µg/mL (≈ 0.306 µM); MIC90 (A. baumannii 46; Acinetobacter baumannii, 46, A. baumannii 46): 16 µg/mL (≈ 19.6 µM); MIC90 (P. aeruginosa 6065Y; 6065Y): 4 µg/mL (≈ 4.9 µM); MIC90 (E. cloacae β19): 0.5 µg/mL (≈ 0.612 µM); MIC90 (K. pneumoniae β13): 0.5 µg/mL (≈ 0.612 µM); MIC90 (K. pneumoniae β11): 2 µg/mL (≈ 2.45 µM); MIC90 (K. pneumoniae β10): 1 µg/mL (≈ 1.22 µM); MIC90 (P. aeruginosa 1912E): 1 µg/mL (≈ 1.22 µM); MIC90 (E. coli AG100; AG100): < 0.0625 µg/mL; MIC90 (K. pneumoniae β9): < 0.0625 µg/mL; MIC90 (A. baumannii 52; 52): > 128 µg/mL; MIC90 (M. catarrhalis 2524; 2524): 0.25 µg/mL (≈ 0.306 µM); MIC90 ([1]; ATCC15473, A. calcoaceticus ATCC15473): 2 µg/mL (≈ 2.45 µM); MIC90 (P. aeruginosa 40; Pseudomonas aeruginosa, 40): 1 µg/mL (≈ 1.22 µM); MIC90 (E. coli β4): 0.5 µg/mL (≈ 0.612 µM); MIC90 (K. pneumoniae β14): 8 µg/mL (≈ 9.79 µM); MIC90 (A. baumannii 49; Acinetobacter baumannii, 49, A. baumannii 49): > 128 µg/mL; MIC90 (P. aeruginosa 37): 1 µg/mL (≈ 1.22 µM)
3 | CC(C)(O/N=C(\C(=O)N[C@@H]1C(=O)N2C(C(=O)[O-])=C(C[n+]3cnc(NCCNC(=O)c4cc(=O)c(O)cn4O)c(N)c3)CSC12)c1csc(N)n1)C(=O)O (some centres unmarked) [Compound 6] | 4 µg/mL (≈ 5.17 µM) | 0.5 µg/mL (≈ 0.646 µM) | 32 µg/mL (≈ 41.4 µM) | 2 µg/mL (≈ 2.58 µM) | 2 µg/mL (≈ 2.58 µM) | 0.125 µg/mL (≈ 0.162 µM) | 8 µg/mL (≈ 10.3 µM) | 0.5 µg/mL (≈ 0.646 µM) | 0.5 µg/mL (≈ 0.646 µM) | 0.25 µg/mL (≈ 0.323 µM) | 2 µg/mL (≈ 2.58 µM) | > 128 µg/mL | 2 µg/mL (≈ 2.58 µM) | 2 µg/mL (≈ 2.58 µM) | 0.5 µg/mL (≈ 0.646 µM) | 4 µg/mL (≈ 5.17 µM) | 16 µg/mL (≈ 20.7 µM) | > 128 µg/mL | 0.5 µg/mL (≈ 0.646 µM) | –
4 | CC(C)(O/N=C(\C(=O)N[C@@H]1C(=O)N2C(C(=O)[O-])=C(C[n+]3cnc(N)c(NCCCCNC(=O)c4cc(=O)c(O)cn4O)c3)CSC12)c1csc(N)n1)C(=O)O (some centres unmarked) [Compound 7] | 2 µg/mL (≈ 2.49 µM) | 0.25 µg/mL (≈ 0.312 µM) | 4 µg/mL (≈ 4.99 µM) | 1 µg/mL (≈ 1.25 µM) | 1 µg/mL (≈ 1.25 µM) | < 0.0625 µg/mL | 16 µg/mL (≈ 20 µM) | 4 µg/mL (≈ 4.99 µM) | 0.5 µg/mL (≈ 0.624 µM) | < 0.0625 µg/mL | < 0.0625 µg/mL | 16 µg/mL (≈ 20 µM) | 2 µg/mL (≈ 2.49 µM) | 1 µg/mL (≈ 1.25 µM) | 0.125 µg/mL (≈ 0.156 µM) | 0.125 µg/mL (≈ 0.156 µM) | 32 µg/mL (≈ 39.9 µM) | 8 µg/mL (≈ 9.98 µM) | 0.125 µg/mL (≈ 0.156 µM) | –
5 | C[C@H](O/N=C(\C(=O)N[C@@H]1C(=O)N2C(C(=O)[O-])=C(/C=C/C[n+]3cnc(N)c(NCCNC(=O)c4cc(=O)c(O)cn4O)c3)CSC12)c1csc(N)n1)C(=O)O (some centres unmarked) [Compound 9] | 0.125 µg/mL (≈ 0.159 µM) | 0.25 µg/mL (≈ 0.318 µM) | 0.5 µg/mL (≈ 0.636 µM) | 0.25 µg/mL (≈ 0.318 µM) | 2 µg/mL (≈ 2.55 µM) | 0.25 µg/mL (≈ 0.318 µM) | > 128 µg/mL | 0.125 µg/mL (≈ 0.159 µM) | 0.25 µg/mL (≈ 0.318 µM) | < 0.0625 µg/mL | 1 µg/mL (≈ 1.27 µM) | > 128 µg/mL | 0.5 µg/mL (≈ 0.636 µM) | 0.5 µg/mL (≈ 0.636 µM) | < 0.0625 µg/mL | 1 µg/mL (≈ 1.27 µM) | 64 µg/mL (≈ 81.4 µM) | > 128 µg/mL | 0.25 µg/mL (≈ 0.318 µM) | –
